According to ChEMBL document CHEMBL4819093, “Discovery of 1-[2-(1-methyl-1H-pyrazol-5-yl)-[1,2,4]triazolo[1,5-a]pyridin-6-yl]-3-(pyridin-4-ylmethyl)urea as a potent NAMPT (nicotinamide phosphoribosyltransferase) activator with attenuated CYP inhibition” (Bioorg Med Chem Lett, 2021):
Converted amounts (≈) assume the structure as drawn.

What was measured:
hERG (KCNH2) [1] = molecular target: T1, hERG (KCNH2) (Homo sapiens, UniProt Q12809); test: Inhibition of human ERG at 30 uM
CYP2D6 = CYP2D6 (Homo sapiens, UniProt P10635); test: Inhibition of CYP2D6 (unknown origin) at 10 uM measured after 10 mins; assay type: ADME
CYP1A2 = molecular target: T2, CYP1A2 (Homo sapiens, UniProt P05177); test: Inhibition of CYP1A2 (unknown origin) at 10 uM measured after 10 mins; assay type: ADME
T2 sequence (P05177 whole entry): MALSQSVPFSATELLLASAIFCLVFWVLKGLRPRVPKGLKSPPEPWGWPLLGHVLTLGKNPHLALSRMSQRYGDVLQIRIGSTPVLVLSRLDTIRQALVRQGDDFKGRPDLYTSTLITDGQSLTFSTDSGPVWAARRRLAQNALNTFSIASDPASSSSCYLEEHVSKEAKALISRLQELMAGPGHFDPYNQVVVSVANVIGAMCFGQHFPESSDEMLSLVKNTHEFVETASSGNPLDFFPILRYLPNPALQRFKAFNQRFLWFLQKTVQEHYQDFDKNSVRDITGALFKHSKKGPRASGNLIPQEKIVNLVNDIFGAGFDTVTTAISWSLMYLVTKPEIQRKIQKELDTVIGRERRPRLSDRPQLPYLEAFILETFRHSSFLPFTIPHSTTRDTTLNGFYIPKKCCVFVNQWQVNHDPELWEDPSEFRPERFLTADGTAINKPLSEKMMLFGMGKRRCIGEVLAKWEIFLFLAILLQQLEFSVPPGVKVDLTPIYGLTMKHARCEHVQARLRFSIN

hERG (KCNH2) [2] = molecular target: T1, hERG (KCNH2); test: Inhibition of human ERG at 10 uM
CYP3A4 = CYP3A4 (Homo sapiens, UniProt P08684); test: Inhibition of CYP3A4 (unknown origin) at 10 uM measured after 10 mins; assay type: ADME
CYP2C9 = CYP2C9 (Homo sapiens, UniProt P11712); test: Inhibition of CYP2C9 (unknown origin) at 10 uM measured after 10 mins; assay type: ADME
hERG (KCNH2) [3] = molecular target: T1, hERG (KCNH2); test: Inhibition of human ERG at 3 uM
[4] = molecular target: T3, Nicotinamide phosphoribosyltransferase (Homo sapiens, UniProt P43490); test: Activation of human NAMPT assessed as increase in NMN production by fluorescence based analysis
[5] = 1-Octanol/PBS buffer distribution coefficient, log D of the compound at pH 7.4
[6] = Metabolic stability in mouse microsome fraction assessed as parent compound remaining at 1 uM measured after 30 mins; details: microsomes
[7] = Permeability of the compound at pH 7.4 by PAMPA
[8] = Solubility of the compound at pH 1.2; details: buffer
in vivo [9] = details: C57BL/6N, mouse, po, 10 mg/kg
[10] = Metabolic stability in human microsome assessed as parent compound remaining at 1 uM measured after 30 mins; details: microsomes
[11] = Half life in C57BL/6N mouse at 10 mg/kg, po; details: in vivo
[12] = Permeability of the compound at pH 5 by PAMPA
in vivo [13] = details: C57BL/6N, mouse, po, 10 mg/kg; remark: listed apart in the source
[14] = Solubility of the compound at pH 6.8; details: buffer
[15] = molecular target: T3, Nicotinamide phosphoribosyltransferase; test: Inhibition of human NAMPT assessed as decrease in NMN production by fluorescence based analysis

CYP2C9, sequence (P11712 whole entry): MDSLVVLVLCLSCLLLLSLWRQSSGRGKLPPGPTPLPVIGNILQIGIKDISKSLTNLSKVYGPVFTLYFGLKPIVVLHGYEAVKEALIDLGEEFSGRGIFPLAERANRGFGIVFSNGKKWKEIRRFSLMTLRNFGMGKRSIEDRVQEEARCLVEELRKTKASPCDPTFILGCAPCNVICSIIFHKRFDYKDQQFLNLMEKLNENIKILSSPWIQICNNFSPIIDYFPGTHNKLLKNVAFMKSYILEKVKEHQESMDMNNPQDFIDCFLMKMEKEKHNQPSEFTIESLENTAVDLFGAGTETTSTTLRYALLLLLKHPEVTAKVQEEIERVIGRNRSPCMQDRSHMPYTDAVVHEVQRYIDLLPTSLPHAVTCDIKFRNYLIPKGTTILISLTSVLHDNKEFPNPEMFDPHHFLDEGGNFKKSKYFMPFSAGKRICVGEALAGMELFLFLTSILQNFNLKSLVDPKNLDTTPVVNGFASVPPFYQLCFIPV
CYP3A4, sequence (P08684 whole entry): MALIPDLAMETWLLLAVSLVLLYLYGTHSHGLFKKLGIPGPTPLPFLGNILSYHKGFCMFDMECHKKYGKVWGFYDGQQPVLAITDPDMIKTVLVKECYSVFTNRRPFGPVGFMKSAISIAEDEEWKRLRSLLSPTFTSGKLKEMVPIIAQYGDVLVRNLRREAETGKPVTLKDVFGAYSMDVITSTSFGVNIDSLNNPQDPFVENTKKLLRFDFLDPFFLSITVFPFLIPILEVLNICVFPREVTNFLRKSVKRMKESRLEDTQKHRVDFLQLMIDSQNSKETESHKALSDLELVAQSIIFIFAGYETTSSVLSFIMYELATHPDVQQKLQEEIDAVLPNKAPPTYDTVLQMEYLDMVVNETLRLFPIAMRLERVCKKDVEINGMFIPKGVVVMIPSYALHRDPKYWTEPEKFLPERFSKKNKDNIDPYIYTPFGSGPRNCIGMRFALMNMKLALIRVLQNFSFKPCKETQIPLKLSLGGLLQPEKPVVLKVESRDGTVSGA
CYP2D6, sequence (P10635 whole entry): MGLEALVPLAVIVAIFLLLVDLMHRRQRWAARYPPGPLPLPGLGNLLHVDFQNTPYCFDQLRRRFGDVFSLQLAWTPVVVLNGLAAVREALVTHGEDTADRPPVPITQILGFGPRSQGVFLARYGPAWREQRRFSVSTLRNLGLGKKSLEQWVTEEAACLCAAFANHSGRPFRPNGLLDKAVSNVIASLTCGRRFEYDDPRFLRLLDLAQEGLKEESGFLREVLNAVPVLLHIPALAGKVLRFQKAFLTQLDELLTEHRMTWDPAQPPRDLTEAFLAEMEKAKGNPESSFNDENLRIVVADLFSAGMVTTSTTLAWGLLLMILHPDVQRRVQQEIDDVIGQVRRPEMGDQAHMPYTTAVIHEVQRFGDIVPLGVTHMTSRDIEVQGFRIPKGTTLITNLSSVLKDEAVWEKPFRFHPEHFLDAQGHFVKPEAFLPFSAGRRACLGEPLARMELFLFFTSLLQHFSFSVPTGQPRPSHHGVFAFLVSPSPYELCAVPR
T1 sequence (Q12809 whole entry): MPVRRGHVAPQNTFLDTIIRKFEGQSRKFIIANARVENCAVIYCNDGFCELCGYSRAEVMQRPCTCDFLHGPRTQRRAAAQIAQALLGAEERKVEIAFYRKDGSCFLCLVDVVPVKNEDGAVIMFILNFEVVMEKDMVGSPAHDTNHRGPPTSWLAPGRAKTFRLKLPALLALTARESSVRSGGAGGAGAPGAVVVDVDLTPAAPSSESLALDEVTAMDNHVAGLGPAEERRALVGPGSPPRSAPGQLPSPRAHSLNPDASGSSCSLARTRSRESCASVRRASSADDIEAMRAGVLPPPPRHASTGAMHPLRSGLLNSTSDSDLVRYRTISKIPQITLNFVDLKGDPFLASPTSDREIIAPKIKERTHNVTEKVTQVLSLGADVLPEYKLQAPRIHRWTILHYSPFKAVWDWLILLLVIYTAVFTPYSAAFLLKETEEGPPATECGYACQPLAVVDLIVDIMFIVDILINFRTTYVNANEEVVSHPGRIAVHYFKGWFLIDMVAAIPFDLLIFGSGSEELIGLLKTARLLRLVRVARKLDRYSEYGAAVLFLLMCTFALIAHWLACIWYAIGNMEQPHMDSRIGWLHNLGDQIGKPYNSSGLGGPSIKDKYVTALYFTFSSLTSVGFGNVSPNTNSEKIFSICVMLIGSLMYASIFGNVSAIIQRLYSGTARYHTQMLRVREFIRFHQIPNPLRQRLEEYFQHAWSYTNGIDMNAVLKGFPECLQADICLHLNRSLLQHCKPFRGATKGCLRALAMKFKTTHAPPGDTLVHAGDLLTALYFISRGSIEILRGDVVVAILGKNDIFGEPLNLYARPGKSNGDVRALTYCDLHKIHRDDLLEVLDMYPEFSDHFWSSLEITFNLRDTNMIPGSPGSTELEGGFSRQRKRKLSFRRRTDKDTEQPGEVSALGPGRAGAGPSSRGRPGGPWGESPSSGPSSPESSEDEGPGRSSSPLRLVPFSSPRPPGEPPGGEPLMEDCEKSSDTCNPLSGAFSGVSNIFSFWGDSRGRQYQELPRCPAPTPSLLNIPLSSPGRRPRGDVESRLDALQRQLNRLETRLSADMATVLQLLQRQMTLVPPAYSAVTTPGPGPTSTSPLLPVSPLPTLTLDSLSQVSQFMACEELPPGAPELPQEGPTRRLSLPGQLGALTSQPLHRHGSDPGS
T3 sequence (P43490 whole entry): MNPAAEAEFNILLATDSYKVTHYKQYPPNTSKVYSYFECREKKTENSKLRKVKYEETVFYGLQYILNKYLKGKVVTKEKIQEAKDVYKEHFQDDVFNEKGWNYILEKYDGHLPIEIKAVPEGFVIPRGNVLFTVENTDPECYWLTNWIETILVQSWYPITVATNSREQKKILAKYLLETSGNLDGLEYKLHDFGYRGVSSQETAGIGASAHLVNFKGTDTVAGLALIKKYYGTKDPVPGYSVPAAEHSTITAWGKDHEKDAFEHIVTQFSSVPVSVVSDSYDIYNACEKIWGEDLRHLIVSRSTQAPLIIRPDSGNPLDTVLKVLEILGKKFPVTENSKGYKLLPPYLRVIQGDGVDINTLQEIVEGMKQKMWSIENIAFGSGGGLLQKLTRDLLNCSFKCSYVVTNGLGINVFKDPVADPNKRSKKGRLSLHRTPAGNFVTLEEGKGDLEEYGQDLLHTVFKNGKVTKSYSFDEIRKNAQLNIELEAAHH

Row | SMILES | inhibition at 10 min, 10 µM (CYP2D6) [%] | inhibition at 10 min, 10 µM (CYP1A2) [%] | inhibition at 10 min, 10 µM (CYP3A4) [%] | inhibition at 10 min, 10 µM (CYP2C9) [%] | EC50 [4] [nM] | further results
1 | Cn1nccc1-c1nc2ccc(NC(=O)NCc3ccncc3)cn2n1 | 16 | 15 | 25 | 42 | – | inhibition at 30 µM (hERG (KCNH2) [1]): 25%; inhibition at 10 µM (hERG (KCNH2) [2]): 14%; inhibition at 3 µM (hERG (KCNH2) [3]): 11%
2 | CC(C)n1nccc1-c1nc2ccc(NC(=O)NCc3ccncc3)cn2n1 | 17 | 12 | 4 | 79 | – | –
3 | CC(C)c1nc2ccc(NC(=O)NCc3ccncc3)cn2n1 | – | – | – | – | 5800 | –
4 | COCCn1nccc1-c1nc2ccc(NC(=O)NCc3ccncc3)cn2n1 | 13 | 6 | 18 | 44 | – | –
5 | O=C(NCc1cn[nH]c1)Nc1ccc2nc(-c3ccccc3)nn2c1 | 23 | 86 | 0 | 59 | – | –
6 | O=C(NCc1ccncc1)Nc1ccc2nc(-c3ccccc3OC(F)(F)F)nn2c1 | 50 | 43 | 65 | 78 | – | –
7 | O=C(NCc1ccncc1)Nc1ccc2nc(-c3cccc(OC(F)(F)F)c3)nn2c1 | 36 | 28 | 0 | 90 | – | –
8 | O=C(NCc1cnco1)Nc1ccc2nc(-c3ccccc3)nn2c1 | 13 | 69 | 0 | 59 | – | –
9 | Cc1ccc(C(=O)N2CCc3cc(NC(=O)NCc4cccnc4)ccc32)cc1 | – | – | – | – | – | IC50 [15]: 32 nM

Second part, led by results:

Row | inhibition at 10 min, 10 µM (CYP2D6) [%] | inhibition at 10 min, 10 µM (CYP1A2) [%] | inhibition at 10 min, 10 µM (CYP3A4) [%] | inhibition at 10 min, 10 µM (CYP2C9) [%] | EC50 [4] [nM] | SMILES | further results
10 | 24 | 8 | 0 | 81 | > 100000 | O=C(NCc1ccncc1)Nc1ccc2nc(-c3ccc(OC(F)(F)F)cc3)nn2c1 | logD [5]: 4.4
11 | 27 | 51 | 40 | 75 | 120 | Cn1cccc1-c1nc2ccc(NC(=O)NCc3ccncc3)cn2n1 | logD [5]: 2.6
12 | 70 | 81 | 53 | 78 | – | O=C(NCc1ccncc1)Nc1ccc2cc(-c3ccccc3)nn2c1 | –
13 | 21 | 63 | 37 | 79 | 83 | O=C(NCc1ccncc1)Nc1ccc2nc(-c3ccccc3)nn2c1 | inhibition at 30 µM (hERG (KCNH2) [1]): 69%; remaining at 0.5 h, 1 µM [6]: 86%; Papp [7]: 2.76 ×10⁻⁶ cm/s; solubility [8]: > 680 µg/mL; inhibition at 10 µM (hERG (KCNH2) [2]): 51%; AUC(0-t) at 24 h (in vivo [9]): 25 µM·h; logD [5]: 3; remaining at 0.5 h, 1 µM [10]: 95%; half-life [11]: 54 min; Papp [12]: 1.42 ×10⁻⁶ cm/s; Cmax (in vivo [13]): 9.2 µM; inhibition at 3 µM (hERG (KCNH2) [3]): 20%; solubility [14]: 92 µg/mL (≈ 267 µM)
14 | – | – | – | – | 480 | Cc1ccc(C(=O)N2CCc3cc(NC(=O)NCc4ccncc4)ccc32)cc1 | –
15 | 50 | 88 | 75 | 74 | – | O=C(NCc1ccncc1)Nc1ccc2cn(-c3ccccc3)nc2c1 | remaining at 0.5 h, 1 µM [6]: 83%; Papp [7]: > 5 ×10⁻⁶ cm/s; logD [5]: 3.2; remaining at 0.5 h, 1 µM [10]: 87%; Papp [12]: 4.6 ×10⁻⁶ cm/s
